ChEMBL document CHEMBL1201862, “PubChem BioAssay data set” (2004)
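48-hour exposure; five concentrations; linearly interpolated endpoints. GI50: concentration for 50% inhibition of growth.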 Activity calls are given as the source filed them. No stated cut-off is given here; in the data, active = GI50 up to about 1.1 µM and inactive = higher.

Key:
Test in all cases: DTP human tumour cell line panel, 48 h
NCI-H522 = test system: NCI-H522
HCT-116 = test system: HCT-116
DU-145 = test system: DU-145
Hs-578T = test system: Hs-578T
TK-10 = test system: TK-10
KM12 = test system: KM12
SNB-75 = test system: SNB-75
MCF7 = test system: MCF7
UACC-257 = test system: UACC-257
A549 = test system: A549
SK-MEL-5 = test system: SK-MEL-5
HOP-92 = test system: HOP-92
NCI-H23 = test system: NCI-H23
UACC-62 = test system: UACC-62
M14 = test system: M14
OVCAR-5 = test system: OVCAR-5
EKVX = test system: EKVX
T47D = test system: T47D
MDA-N = test system: MDA-N
OVCAR-8 = test system: OVCAR-8
Malme-3M = test system: Malme-3M
786-0 = test system: 786-0
RXF 393 = test system: RXF 393
SK-OV-3 = test system: SK-OV-3
COLO 205 = test system: COLO 205
MDA-MB-231 = test system: MDA-MB-231
HCT-15 = test system: HCT-15
K562 = test system: K562
U-251 = test system: U-251
SN12C = test system: SN12C
SK-MEL-2 = test system: SK-MEL-2
IGROV-1 = test system: IGROV-1
HT-29 = test system: HT-29
SW-620 = test system: SW-620
MDA-MB-435 = test system: MDA-MB-435
UO-31 = test system: UO-31
CAKI-1 = test system: CAKI-1
CCRF-CEM = test system: CCRF-CEM
SF-539 = test system: SF-539
BT-549 = test system: BT-549
HOP-62 = test system: HOP-62
SF-268 = test system: SF-268
LOX IMVI = test system: LOX IMVI
SR = test system: SR
RPMI-8226 = test system: RPMI-8226
SF-295 = test system: SF-295
OVCAR-3 = test system: OVCAR-3
SNB-19 = test system: SNB-19
MOLT-4 = test system: MOLT-4
SK-MEL-28 = test system: SK-MEL-28
PC-3 = test system: PC-3
OVCAR-4 = test system: OVCAR-4
NCI-H460 = test system: NCI-H460
NCI/ADR-RES = test system: NCI/ADR-RES
ACHN = test system: ACHN
HL-60 = test system: HL-60
A498 = test system: A498
HCC 2998 = test system: HCC 2998
NCI-H226 = test system: NCI-H226

In the case of `Cn1c(SCc2c[nH]c3ccccc23)nnc1-c1ccc(Cl)cc1Cl`, the GI50 (NCI-H522) is reported as 12.7 µM (inactive), the GI50 (HCT-116) is reported as 23.4 µM (inactive) and the GI50 (DU-145) is reported as 17.6 µM (inactive). For the same molecule, the GI50 (Hs-578T) was 19.7 µM (inactive), the GI50 (TK-10) was 17.1 µM (inactive) and the GI50 (KM12) was 9.82 µM (inactive). For the same molecule, the GI50 (SNB-75) was 1.29 µM (inactive), the GI50 (MCF7) was 22.7 µM (inactive) and the GI50 (UACC-257) was 19.9 µM (inactive). The GI50 (A549) was 17.5 µM (inactive), the GI50 (SK-MEL-5) was 14.5 µM (inactive) and the GI50 (HOP-92) was 12.6 µM (inactive). For the same molecule, the GI50 (NCI-H23) was 23.8 µM (inactive), the GI50 (UACC-62) was 12 µM (inactive) and the GI50 (M14) was 11.4 µM (inactive). For the same molecule, the GI50 (OVCAR-5) was 22.8 µM (inactive), the GI50 (EKVX) was 15.3 µM (inactive) and the GI50 (T47D) was 12.7 µM (inactive). The GI50 (MDA-N) was 4.44 µM (inactive), the GI50 (OVCAR-8) was 21.2 µM (inactive) and the GI50 (Malme-3M) was 18.9 µM (inactive). The GI50 (786-0) was 24.4 µM (inactive), the GI50 (RXF 393) was 12.2 µM (inactive) and the GI50 (SK-OV-3) was 15.9 µM (inactive). For the same molecule, the GI50 (COLO 205) was 14 µM (inactive), the GI50 (MDA-MB-231) was 10.5 µM (inactive) and the GI50 (HCT-15) was 12.1 µM. For the same molecule, the GI50 (K562) was 4.23 µM (inactive), the GI50 (U-251) was 15.1 µM (inactive) and the GI50 (SN12C) was 17.1 µM (inactive). The GI50 (SK-MEL-2) was 12.3 µM (inactive), the GI50 (IGROV-1) was 17.4 µM (inactive) and the GI50 (HT-29) was 17.3 µM (inactive). For the same molecule, the GI50 (SW-620) was 19.5 µM (inactive), the GI50 (MDA-MB-435) was 3 µM (inactive) and the GI50 (UO-31) was 18 µM (inactive). For the same molecule, the GI50 (CAKI-1) was 20 µM (inactive), the GI50 (CCRF-CEM) was 12.8 µM (inactive) and the GI50 (SF-539) was 3.14 µM (inactive). The GI50 (BT-549) was 18.3 µM (inactive), the GI50 (HOP-62) was 6.1 µM (inactive) and the GI50 (SF-268) was 23.9 µM (inactive). For the same molecule, the GI50 (LOX IMVI) was 5.18 µM (inactive), the GI50 (SR) was 4.23 µM (inactive) and the GI50 (RPMI-8226) was 13.1 µM (inactive). The GI50 (SF-295) was 8.3 µM (inactive), the GI50 (OVCAR-3) was 12.1 µM (inactive) and the GI50 (SNB-19) was 16.8 µM (inactive). For the same molecule, the GI50 (MOLT-4) was 7.36 µM (inactive), the GI50 (SK-MEL-28) was 36.2 µM (inactive) and the GI50 (PC-3) was 12.1 µM (inactive). The GI50 (OVCAR-4) was 12.4 µM (inactive), the GI50 (NCI-H460) was 12.5 µM (inactive) and the GI50 (NCI/ADR-RES) was 6.07 µM (inactive). The GI50 (ACHN) was 23.9 µM (inactive), the GI50 (HL-60) was 10.4 µM (inactive) and the GI50 (A498) was 16.3 µM (inactive). The GI50 (HCC 2998) was 12 µM (inactive).

In the case of `CO[C@@H]1C[C@H]2[C@@H]3CC[C@H]([C@H](C)CO)[C@@]3(C)CC[C@@H]2[C@@]2(C)CC[C@H]3C[C@]312`, the GI50 (NCI-H522) is reported as 56 µM (inactive), the GI50 (HCT-116) is reported as 30.2 µM (inactive) and the GI50 (DU-145) is reported as > 100 µM (inactive). The GI50 (Hs-578T) was 43.4 µM (inactive), the GI50 (TK-10) was > 100 µM (inactive) and the GI50 (KM12) was 15.9 µM (inactive). For the same molecule, the GI50 (SNB-75) was 89.9 µM (inactive), the GI50 (MCF7) was 19.2 µM (inactive) and the GI50 (UACC-257) was 35.6 µM (inactive). The GI50 (A549) was 69 µM (inactive), the GI50 (SK-MEL-5) was 30.4 µM (inactive) and the GI50 (HOP-92) was 21 µM (inactive). The GI50 (NCI-H23) was 55.7 µM (inactive), the GI50 (M14) was 32.4 µM (inactive) and the GI50 (OVCAR-5) was > 100 µM (inactive). The GI50 (EKVX) was 12.5 µM (inactive), the GI50 (T47D) was 24.8 µM (inactive) and the GI50 (MDA-N) was 39.8 µM (inactive). For the same molecule, the GI50 (OVCAR-8) was 49 µM (inactive), the GI50 (Malme-3M) was > 100 µM (inactive) and the GI50 (786-0) was 62.5 µM (inactive). The GI50 (RXF 393) was 26.2 µM (inactive), the GI50 (COLO 205) was 20.1 µM (inactive) and the GI50 (MDA-MB-231) was 31.6 µM (inactive). For the same molecule, the GI50 (HCT-15) was 34 µM, the GI50 (K562) was 26 µM (inactive) and the GI50 (U-251) was 27.6 µM (inactive). The GI50 (SN12C) was 53.7 µM (inactive), the GI50 (IGROV-1) was 84.7 µM (inactive) and the GI50 (HT-29) was 20.7 µM (inactive). The GI50 (SW-620) was 70.3 µM (inactive), the GI50 (MDA-MB-435) was 37.8 µM (inactive) and the GI50 (UO-31) was 53.1 µM (inactive). For the same molecule, the GI50 (CAKI-1) was 5.08 µM (inactive), the GI50 (SF-539) was 45.7 µM (inactive) and the GI50 (BT-549) was 13.3 µM (inactive). The GI50 (HOP-62) was > 100 µM (inactive), the GI50 (SF-268) was 35.7 µM (inactive) and the GI50 (LOX IMVI) was 18.8 µM (inactive). The GI50 (SR) was 37.5 µM (inactive), the GI50 (RPMI-8226) was 18.3 µM (inactive) and the GI50 (SF-295) was 28.5 µM (inactive). For the same molecule, the GI50 (NCI-H226) was 28.1 µM (inactive), the GI50 (OVCAR-3) was > 100 µM (inactive) and the GI50 (SNB-19) was 67.6 µM (inactive). For the same molecule, the GI50 (MOLT-4) was 32.5 µM (inactive), the GI50 (SK-MEL-28) was 46.9 µM (inactive) and the GI50 (PC-3) was 27.6 µM (inactive). For the same molecule, the GI50 (OVCAR-4) was 55.8 µM (inactive), the GI50 (NCI-H460) was 26.7 µM (inactive) and the GI50 (NCI/ADR-RES) was 34.3 µM (inactive). The GI50 (ACHN) was 33.2 µM (inactive), the GI50 (HL-60) was 20.7 µM (inactive) and the GI50 (A498) was 80.4 µM (inactive). For the same molecule, the GI50 (HCC 2998) was 36.1 µM (inactive).
